{
  "source": "paper PMC10847306",
  "about": "“The antibacterial activity and mechanism of a novel peptide MR-22 against multidrug-resistant Escherichia coli” (Frontiers in Cellular and Infection Microbiology, 2024)",
  "tested_on": "E. coli E19",
  "assay_type": "cell-based, Escherichia coli",
  "method": "In order to study the activity of MR-22 in high-salt concentration, mice serum, different temperatures or trypsin, MIC once again conducted tests as described above.\nE. coli ATCC 25922 and E19 were incubated in different concentrations MR-22 in MHB with 150 mM NaCl, 2 mM CaCl2, 10% mice serum and 10% FBS in 96-well plates and cultured at 37°C for 16 h. The resulting solutions were subjected to MIC testing to evaluate any alterations in the antimicrobial activity of MR-22.\nTo assess the thermal stability of MR-22, it was subjected to various temperatures (40°C, 60°C, 80°C, and 100°C) for 30 min. Then, reducing to room temperature, and the MIC was subsequently determined.\nMR-22 was mixed with a solution containing 1 μg/ml of trypsin and incubated at 37°C for 2 to 12h. Then, trypsin inactivation was carried out at 60°C for 30 min. The antimicrobial activity of the samples was tested to assess the activity of MR-22 and its analogs after the treatment by trypsin. The untreated MR-22 served as the control group for comparative analysis.",
  "data": [
    {"substance": "H-MAKRRKKAKKKAKKAKKRRRRR-NH2 [MR-22]", "values": [
      {"measurement": "MIC, 150 μM Na^+", "setting": "E19, 16 h", "result": 256, "unit": "µg/mL"},
      {"measurement": "MIC, 10% FBS", "setting": "E19, 16 h", "result": 32, "unit": "µg/mL"},
      {"measurement": "MIC, 10% Serum", "setting": "E19, 16 h", "result": 128, "unit": "µg/mL"},
      {"measurement": "MIC, 40°C 30 min", "setting": "E19, 16 h", "result": 32, "unit": "µg/mL"},
      {"measurement": "MIC, 60°C 30 min", "setting": "E19, 16 h", "result": 32, "unit": "µg/mL"},
      {"measurement": "MIC, 80°C 30 min", "setting": "E19, 16 h", "result": 32, "unit": "µg/mL"},
      {"measurement": "MIC, 100°C 30 min", "setting": "E19, 16 h", "result": 32, "unit": "µg/mL"},
      {"measurement": "MIC, Control", "setting": "E19, 16 h", "result": 32, "unit": "µg/mL"},
      {"measurement": "MIC, 1 μg/mL Trypsin", "setting": "E. coli E19, MR-22 incubated with 1 μg/ml trypsin at 37°C (2 to 12 h), trypsin inactivated 60°C 30 min", "result": ">256", "unit": "µg/mL"}
    ]}
  ]
}
